Reference: article PMC12055641, “The Study of Antistaphylococcal Potential of Omiganan and Retro-Omiganan Under Flow Conditions” (Probiotics and Antimicrobial Proteins, 2024)
No end group written: not given here.

Columns and labels:
[1] = test system: human keratinocytes (HaCaT); format: cell-based; settings: 24 h
Description: To evaluate the cytotoxicity of the peptides (IC50), the classic MTT assay on 96-well plates was performed for human keratinocytes (HaCaT) which were acquired from the ATCC. The assay utilizes colorimetric determination of the cell metabolic activity, and the color intensity reflects the number of live cells that can be measured spectrophotometrically. […] DMSO was added to the control cells at a final concentration of 1.0% (v/v), which was related to the maximum concentration of the solvent compounds used in the experiment. After 24 h of incubation at 37 °C (humidified 5% CO2 incubator) with the peptides, a medium containing 1 mg/mL of MTT was added to the wells up to a final concentration of 0.5 mg/mL. Subsequently, the plates were incubated at 37 °C for 4 h. Then, the medium was aspirated, and the formazan product was solubilized with DMSO. The background absorbance at 630 nm was subtracted from that at 570 nm for each well (Epoch, BioTek Instruments, USA). Six replicates were conducted for each concentration. All experiments were repeated at least twice and the resulting IC50 values were calculated with GraFit 7 software (v. 7.0, Erithacus, Berkley, CA, USA).

S. aureus ATCC 6538 = settings: ATCC 6538, reference strain
[2] = test system: S. aureus clinical strain 030N
Source text: (§1) Clinical S. aureus strains were collected from patients with atopic dermatitis during their visits to the Outpatient Clinic and hospitalization in the Department of Dermatology, Venereology and Allergology at Medical University of Gdańsk (following the approval from the ethics committee, Approval Number NKBBN/242–477/2014). Reference strains of S. aureus ATCC 25923, S. aureus ATCC 33591, S. aureus ATCC 9144, and S. aureus ATCC 12598 were obtained from the American Type Culture Collection. All the strains were stored at − 80 °C in Roti®-Store cryo vials (Carl Roth GmbH, Karlsruhe, Germany) and before the tests were transferred into fresh Mueller–Hinton Medium (BioMaxima, Lublin, Poland) and incubated for 24 h at 37 °C. Subsequently, each bacterial inoculum was seeded on Mueller–Hinton agar plates (BioMaxima) and incubated again for 24 h. The cultures prepared in this way were used in further antimicrobial assays. Minimum inhibitory concentrations (MICs) were determined according to the Clinical and Laboratory Standards Institute recommendations. […] The experiments were conducted on 96-well microtiter plates, with a final volume of 100 μL. Additionally, in the case of daptomycin, the medium was supplemented with Ca^2+ (50 mg/L). Cell densities were adjusted spectrophotometrically (Multiskan™ GO Microplate Spectrophotometer, Thermo Scientific) at 600 nm. The MICs were taken as the lowest drug concentration at which a visible growth of the microorganisms was inhibited. Minimum biofilm eliminating concentrations (MBECs) were determined on 96-well flat-bottomed microtiter polystyrene plates with resazurin (7-hydroxy-3H-phenoxazin-3-one 10-oxide sodium salt) as a cell viability reagent. To do this, the plates were filled with 100 μL of the initial inoculums of bacteria (0.5 × 10^7 CFU/mL) in the Mueller–Hinton broth and incubated for 24 h at 37 °C. […] After 24 h of incubation, 20 μL of resazurin (4 mg/mL) was added to each well and the MBEC values were read. Minimum biofilm inhibitory concentrations (MBICs) were also determined on 96-well flat-bottomed microtiter polystyrene plates as described previously. To do this, 50 μL of the compounds in the concentration range, diluted MHB, were prepared. Subsequently, the 50 μL of the staphylococcal inoculums were added to reach the same density of bacteria as that in the MBEC assay. After 24 h of incubation at 37 °C, the wells were rinsed three times with PBS and the fresh medium (100 μL) with resazurin (0.6 mg/mL) was added. Then, after 1 h of incubation, MBICs were read. […] All experiments were conducted in triplicate.

[3] = test system: S. aureus ATCC 25923 biofilm; settings: ATCC 25923, reference strain
Source text: as §1

[4] = test system: S. aureus ATCC 33591 (MRSA); settings: ATCC 33591, 24 h
Source text: as §1

[5] = test system: S. aureus clinical strain 043SC (MRSA); settings: 24 h
Source text: as §1

[6] = test system: S. aureus ATCC 33591 (MRSA) biofilm; settings: ATCC 33591, 24 h
Source text: as §1

[7] = test system: reference and clinical strains of staphylococci (S. aureus); settings: 24 h
Source text: as §1

[8] = test system: S. aureus clinical strain 030N biofilm
Source text: as §1

[9] = test system: S. aureus clinical strain 015N (MRSA); settings: 24 h
Source text: as §1

[10] = test system: S. aureus clinical strain 005S biofilm
Source text: as §1

[11] = test system: S. aureus clinical strain 004N (MRSA) biofilm; settings: clinical strain 004N biofilm, 24 h
Source text: as §1

[12] = test system: biofilm of reference and clinical strains of staphylococci (S. aureus); settings: for mean MBIC (initial values): average over 14 strains, polystyrene 96-well plates, not corrected
Source text: as §1

[13] = test system: S. aureus ATCC 12598 biofilm; settings: ATCC 12598, reference strain
Source text: as §1

S. aureus ATCC 12598 = settings: ATCC 12598, reference strain
Source text: as §1

[14] = test system: S. aureus clinical strain 031S biofilm
Source text: as §1

[15] = test system: S. aureus clinical strain 060S
Source text: as §1

[16] = test system: S. aureus clinical strain 004N (MRSA); settings: 24 h
Source text: as §1

[17] = test system: S. aureus clinical strain 043SC (MRSA) biofilm; settings: clinical strain 043SC biofilm, 24 h
Source text: as §1

[18] = test system: S. aureus clinical strain 015N (MRSA) biofilm; settings: clinical strain 015N biofilm, 24 h
Source text: as §1

[19] = test system: S. aureus clinical strain 009S biofilm
Source text: as §1

[20] = test system: S. aureus clinical strain 031S
Source text: as §1

[21] = test system: S. aureus clinical strain 060S biofilm
Source text: as §1

[22] = test system: S. aureus clinical strain 009S
Source text: as §1

[23] = test system: S. aureus clinical strain 051N (MRSA); settings: 24 h
Source text: as §1

S. aureus ATCC 9144 = settings: ATCC 9144, reference strain
Source text: as §1

[24] = test system: S. aureus ATCC 9144 biofilm; settings: ATCC 9144, reference strain
Source text: as §1

[25] = test system: S. aureus clinical strain 051N (MRSA) biofilm; settings: clinical strain 051N biofilm, 24 h
Source text: as §1

S. aureus ATCC 25923 = settings: ATCC 25923, reference strain
Source text: as §1

[26] = test system: S. aureus clinical strain 005S
Source text: as §1

[27] = test system: S. aureus ATCC 6538 biofilm; settings: ATCC 6538, reference strain
[28] = test system: S. aureus ATCC 6538 biofilm; settings: ATCC 6538, reference strain; remark: listed apart in the source

ILRWPWWPWRRK-NH2 [Omiganan AcO^−]
IC50 [1]: 73.72 µg/mL | MIC (S. aureus ATCC 6538): 8 µg/mL | MIC [2]: 8 µg/mL | MBEC [3]: 128 µg/mL | MBIC [3]: 32 µg/mL | MIC [4]: 16 µg/mL | MIC [5]: 8 µg/mL | MBEC [6]: 64 µg/mL | MBIC [6]: 32 µg/mL | mean MIC (initial values) [7]: 6.82 µg/mL | MBEC [8]: 32 µg/mL | MBIC [8]: 16 µg/mL | MIC [9]: 8 µg/mL | MBEC [10]: 16 µg/mL | MBIC [10]: 1 µg/mL | MBEC [11]: 32 µg/mL | MBIC [11]: 8 µg/mL | mean MBEC (initial values) ([12]; 24 h): 38.86 µg/mL | mean MBIC (initial values) [12]: 14.54 µg/mL | MBEC [13]: 32 µg/mL | MBIC [13]: 16 µg/mL | MIC (S. aureus ATCC 12598): 8 µg/mL | MBEC [14]: 16 µg/mL | MIC [15]: 1 µg/mL | MIC [16]: 8 µg/mL | MBEC [17]: 16 µg/mL | MBIC [17]: 16 µg/mL | MBEC [18]: 32 µg/mL | MBIC [18]: 16 µg/mL | MBEC [19]: 16 µg/mL | MBIC [19]: 1 µg/mL | MIC [20]: 1 µg/mL | MBEC [21]: 16 µg/mL | MBIC [21]: 1 µg/mL | MIC [22]: 0.5 µg/mL | MIC [23]: 8 µg/mL | MIC (S. aureus ATCC 9144): 4 µg/mL | MBEC [24]: 16 µg/mL | MBIC [24]: 16 µg/mL | MBEC [25]: 64 µg/mL | MBIC [25]: 16 µg/mL | MIC (S. aureus ATCC 25923): 16 µg/mL | MIC [26]: 1 µg/mL | MBEC [27]: 64 µg/mL | MBIC [28]: 32 µg/mL

ILRWPWWPWRRK-NH2 [Omiganan TFA^−]
IC50 [1]: 77.10 µg/mL | MIC (S. aureus ATCC 6538): 4 µg/mL | MIC [2]: 8 µg/mL | MBEC [3]: 128 µg/mL | MBIC [3]: 32 µg/mL | MIC [4]: 16 µg/mL | MIC [5]: 8 µg/mL | MBEC [6]: 32 µg/mL | MBIC [6]: 32 µg/mL | mean MIC (corrected values) [7]: 7.75 µg/mL | mean MIC (initial values) [7]: 7.75 µg/mL | MBEC [8]: 32 µg/mL | MBIC [8]: 16 µg/mL | MIC [9]: 16 µg/mL | MBEC [10]: 16 µg/mL | MBIC [10]: 2 µg/mL | MBEC [11]: 64 µg/mL | MBIC [11]: 16 µg/mL | mean MBEC (corrected values) ([12]; 24 h): 42.29 µg/mL | mean MBEC (initial values) ([12]; 24 h): 42.29 µg/mL | mean MBIC (initial values) [12]: 17.54 µg/mL | mean MBIC (corrected values) ([12]; biofilm of reference and clinical strains of staphylococci, 24 h): 17.54 µg/mL | MBEC [13]: 32 µg/mL | MBIC [13]: 32 µg/mL | MIC (S. aureus ATCC 12598): 8 µg/mL | MBEC [14]: 16 µg/mL | MIC [15]: 2 µg/mL | MIC [16]: 8 µg/mL | MBEC [17]: 32 µg/mL | MBIC [17]: 16 µg/mL | MBEC [18]: 64 µg/mL | MBIC [18]: 16 µg/mL | MBEC [19]: 32 µg/mL | MBIC [19]: 1 µg/mL | MIC [20]: 1 µg/mL | MBEC [21]: 16 µg/mL | MBIC [21]: 2 µg/mL | MIC [22]: 0.5 µg/mL | MIC [23]: 16 µg/mL | MIC (S. aureus ATCC 9144): 4 µg/mL | MBEC [24]: 32 µg/mL | MBIC [24]: 16 µg/mL | MBEC [25]: 64 µg/mL | MBIC [25]: 32 µg/mL | MIC (S. aureus ATCC 25923): 16 µg/mL | MIC [26]: 1 µg/mL | MBEC [27]: 32 µg/mL | MBIC [28]: 32 µg/mL
